Experiments:
[1] = test system: plant roots; experiment: Abamectin applied to soil prior to planting: gall formation, root necrosis, root length; assay type: in vivo
Procedure: Abamectin at 5 μg or 1 μg was directly applied to soil prior to planting. Alternatively abamectin was loaded into liposomes at either 5 μg or 1 μg and applied to soil prior to planting. Gall formation was detected. […] Therefore, liposomal abamectin formulations enhance root length as compared to non-liposomal abamectin formulations.

[2] = test system: nematodes in a dehydrated state; settings: dry soils; cited from earlier work
[3] = test system: Root-Knot larvae (J2); experiment: Efficacy of nematicides (Oxamyl, Thiodicarb) in killing Root-Knot larvae (J2) in vitro; assay type: in vivo, M. incognita; settings: compared with Oxamyl, 200 ug to 10 mg
Procedure: M. incognita eggs collected from tomato cultures by NaOC1 extraction (Hussey and Barker, 1973). Briefly, six to twelve week old infected tomato roots were cut into 1-2 segment. Root segments were shacked vigorously in 200 ml of a 0.5% Na O Cl solution for 4 min. Then, the Na O Cl solution was passed quickly through a 200-mesh (75-um), nested over a 500-mesh sieve to collect freed eggs. The a 500-mesh sieve with eggs was quickly placed under a stream of cold water to remove residual Na O Cl and rinsed several times. About 50 ml aqueous suspension of eggs was collected and number of eggs per unit volume will be counted. The egg suspension was allowed to sit at room temperature for 4 days. The hatching juveniles were collected and used in the subsequent experiments.
Determine the efficient concentration of nematicides (Oxamyl and Thidiocarb) that kill or suppress Root-Knot Larvae.
M. incognita eggs collected from tomato cultures by NaOC1 extraction (Hussey & Barker, Plant Disease Reporter. 57:1025-1028 (1973)). Egg suspension was incubated at room temperature until larvae were hatched (4-5 days). The juveniles (J2) were counted and evaluated for activity/mobility for the duration of the study. Four different concentrations of both nematicides (Oxamyl and Thiodicarb) were used to assess their efficacy in killing the nematodes. These were untreated control, 200 ug, 1 mg, 2 mg, and 10 mg. […]

abamectin [non-liposomal abamectin]
root necrosis ([1]; 1 μg applied to soil prior to planting, FIG. 4): most root necrosis followed by the non-liposomal abamectin 1 μg application | gall formation ([1]; 5 μg applied to soil prior to planting, FIG. 3): most gall formulation followed by the non-liposomal abamectin 5 μg application

CBr [methyl bromide]
tolerated dose compared to active forms in moist soil [2]: 10 times the lethal dose

CS/C(C)=N\OC(=O)N(C)SN(C)C(=O)O/N=C(\C)SC [Larvin (Thiodicarb), Thiodicarb]
concentration needed to kill Root-Knot (J2) [3]: required higher concentration to kill Root-Knot (J2)

From patent US20180116209A1, “Liposome Formulations” (priority 2012, published 2018)
